From US20090258951A1, “Use of vanillyl alcohol for the treatment of Parkinson's disease” (Red Pharma & Biotech Research Corporation, priority 2008, published 2009)

Key:
[1] = system: rat with right-side substantia nigra destroyed by 6-OHDA (6-hydroxydopamine); assay type: in vivo
Description: (§1) After affixing rear head of a rat with a three-dimensional tightener and anaesthetizing the rat, then inject substantia nigra located at the right side of brain of the rat with 6-OHDA (6-hydroxydopamine) to destroy substantia nigra to make the rat produce tremor, rigidity, bradykinesia etc. Next, after the rat returns to and stays in room for 2 weeks, it is given amphetamine (5 mg/1000 g) via belly injection and then starts rotating round an animal gyroscope, wherein the number of rotations will be recorded (if the number of rotations exceeds 300 rotations per an hour, it means that the amphetamine has effected on the rat).
The substantia nigra of the brain of the rat is a tissue to release dopamine so that the injected amphetamine may accelerate the substantia nigra to release a large amount of dopamine. […]
With reference to FIG. 7, the rat is given with L-DOPA about 50 mg per 1 kg of body weight thereof via belly injection and further provided with Vanillyl alcohol about 30 mg. […] Next, the rat rotates round an animal gyroscope on 28th, 36th, and 52nd day respectively for right turn (clockwise) and left turn (counterclockwise), in which the number of rotations will be recorded.

[2] = system: rat with right-side substantia nigra destroyed by 6-OHDA (6-hydroxydopamine); assay: Amphetamine-induced rotation of rat with substantia nigra destroyed by 6-OHDA (animal gyroscope); assay type: in vivo
Description: as §1
The substantia nigra of the brain of the rat is a tissue to release dopamine so that the injected amphetamine may accelerate the substantia nigra to release a large amount of dopamine. However, the substantia nigra located at the right side of brain of the rat has been destroyed by the 6-OHDA (6-hydroxydopamine) already unable to release dopamine any more, although the rat is injected with amphetamine for stimulation but the left side of body movement which is controlled by the right side of brain remains rigidity and bradykinesia. On the other hand, the substantia nigra located at the left side of brain of the rat is in normal condition without any injury so hyperkinesia occurs on the right side of body movement which is controlled by the left side of brain due to acceleration of amphetamine, that's why the rat keeps rotating for right turn (clockwise) and even uncontrollably.
With reference to FIG. 4, the rat is given with amphetamine about 1 mg per 1 kg of body weight thereof via belly injection and rotates round an animal gyroscope on 28th, 36th, 43rd and 52nd day respectively for right turn (clockwise) and left turn (counterclockwise), in which the number of rotations will be recorded.
With reference to FIG. 5, the rat is given with amphetamine about 1 mg per 1 kg of body weight thereof via belly injection and further provided with Vanillyl alcohol about 30 mg. Next, the rat rotates round an animal gyroscope on 28th, 36th, 43rd and 52nd day respectively for right turn (clockwise) and left turn (counterclockwise), in which the number of rotations will be recorded.

SMILES | movements of the rat ([1]; L-DOPA about 50 mg per 1 kg via belly injection plus Vanillyl alcohol about 30 mg, benserazide 30 mg per 1 kg 30 minutes before, days 28, 36, 52 (FIG. 7)) | behavioral unbalance between right and left sides induced by L-DOPA ([1]; Vanillyl alcohol about 30 mg in combination with L-DOPA about 50 mg per 1 kg, benserazide pre-treatment (FIG. 7)) | number of rotations for right turn (clockwise) ([2]; amphetamine about 1 mg per 1 kg via belly injection plus Vanillyl alcohol about 30 mg, days 28, 36, 43, 52, effect since 43rd day, 52nd day most apparent (FIG. 5)) | behavioral asymmetry between right side and left side ([2]; amphetamine about 1 mg per 1 kg via belly injection plus Vanillyl alcohol about 30 mg, effect since 43rd day, 52nd day most apparent (FIG. 5)) | number of rotations for left turn (counterclockwise) ([2]; amphetamine about 1 mg per 1 kg via belly injection alone, days 28, 36, 43, 52, symptom since 36th day (FIG. 4)) | behavioral asymmetry between right side and left side ([2]; amphetamine about 1 mg per 1 kg via belly injection alone, symptom since 36th day (FIG. 4))
COc1cc(CO)ccc1O [Vanillyl alcohol, 4-hydroxy-3-methoxy-benzyl alcohol] | almost normal | inhibit | decreased gradually | decreased apparently |  | 
CC(N)Cc1ccccc1 (stereo not drawn) [amphetamine, reference compound] |  |  |  |  | decreased gradually | increased apparently
